The target of one test is T1, BRM (Homo sapiens, UniProt P51531).
T1 construct: made in house; host or cells: High Five insect cells
Put plainly: ATPase catalytic activity of BRM, ADP-Glo in vitro biochemical assay. The following applies: for IC50: ADP-Glo ATPase assay, 30 nM BRM, 400 μM ATP; for Ratio*: ratio BRG1 IC50 / BRM IC50. A digest of the protocol:
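Recombinant BRM (30 nM) hydrolysed 400 μM ATP with 20 nM salmon sperm DNA in pH 8 Tris buffer containing 20 mM MgCl2, 50 mM NaCl, 0.1% Tween-20 and 1 mM DTT, 1 h at room temperature. ADP formed was quantified by ADP-Glo luminescence.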

The next test deals with T2, BRG-1 (Homo sapiens, UniProt P51532).
T2 construct: made in house; host or cells: High Five insect cells
The test is described as follows: ATPase catalytic activity of BRG-1, ADP-Glo in vitro biochemical assay. To be noted: ADP-Glo ATPase assay, 30 nM BRG-1, 400 μM ATP; read-out: BRG1 IC50. A digest of the protocol:
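BRG-1 ATPase activity was measured in vitro by ADP-Glo. After the reaction, ADP-Glo Reagent depleted unconsumed ATP (40 min, room temperature), then Kinase Detection Reagent converted product ADP to ATP (60 min, room temperature), and luciferase luminescence was read.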
On the technique in general: ADP-Glo first removes unused ATP, then detects ADP through luciferase.

T2 sequence (P51532 whole entry): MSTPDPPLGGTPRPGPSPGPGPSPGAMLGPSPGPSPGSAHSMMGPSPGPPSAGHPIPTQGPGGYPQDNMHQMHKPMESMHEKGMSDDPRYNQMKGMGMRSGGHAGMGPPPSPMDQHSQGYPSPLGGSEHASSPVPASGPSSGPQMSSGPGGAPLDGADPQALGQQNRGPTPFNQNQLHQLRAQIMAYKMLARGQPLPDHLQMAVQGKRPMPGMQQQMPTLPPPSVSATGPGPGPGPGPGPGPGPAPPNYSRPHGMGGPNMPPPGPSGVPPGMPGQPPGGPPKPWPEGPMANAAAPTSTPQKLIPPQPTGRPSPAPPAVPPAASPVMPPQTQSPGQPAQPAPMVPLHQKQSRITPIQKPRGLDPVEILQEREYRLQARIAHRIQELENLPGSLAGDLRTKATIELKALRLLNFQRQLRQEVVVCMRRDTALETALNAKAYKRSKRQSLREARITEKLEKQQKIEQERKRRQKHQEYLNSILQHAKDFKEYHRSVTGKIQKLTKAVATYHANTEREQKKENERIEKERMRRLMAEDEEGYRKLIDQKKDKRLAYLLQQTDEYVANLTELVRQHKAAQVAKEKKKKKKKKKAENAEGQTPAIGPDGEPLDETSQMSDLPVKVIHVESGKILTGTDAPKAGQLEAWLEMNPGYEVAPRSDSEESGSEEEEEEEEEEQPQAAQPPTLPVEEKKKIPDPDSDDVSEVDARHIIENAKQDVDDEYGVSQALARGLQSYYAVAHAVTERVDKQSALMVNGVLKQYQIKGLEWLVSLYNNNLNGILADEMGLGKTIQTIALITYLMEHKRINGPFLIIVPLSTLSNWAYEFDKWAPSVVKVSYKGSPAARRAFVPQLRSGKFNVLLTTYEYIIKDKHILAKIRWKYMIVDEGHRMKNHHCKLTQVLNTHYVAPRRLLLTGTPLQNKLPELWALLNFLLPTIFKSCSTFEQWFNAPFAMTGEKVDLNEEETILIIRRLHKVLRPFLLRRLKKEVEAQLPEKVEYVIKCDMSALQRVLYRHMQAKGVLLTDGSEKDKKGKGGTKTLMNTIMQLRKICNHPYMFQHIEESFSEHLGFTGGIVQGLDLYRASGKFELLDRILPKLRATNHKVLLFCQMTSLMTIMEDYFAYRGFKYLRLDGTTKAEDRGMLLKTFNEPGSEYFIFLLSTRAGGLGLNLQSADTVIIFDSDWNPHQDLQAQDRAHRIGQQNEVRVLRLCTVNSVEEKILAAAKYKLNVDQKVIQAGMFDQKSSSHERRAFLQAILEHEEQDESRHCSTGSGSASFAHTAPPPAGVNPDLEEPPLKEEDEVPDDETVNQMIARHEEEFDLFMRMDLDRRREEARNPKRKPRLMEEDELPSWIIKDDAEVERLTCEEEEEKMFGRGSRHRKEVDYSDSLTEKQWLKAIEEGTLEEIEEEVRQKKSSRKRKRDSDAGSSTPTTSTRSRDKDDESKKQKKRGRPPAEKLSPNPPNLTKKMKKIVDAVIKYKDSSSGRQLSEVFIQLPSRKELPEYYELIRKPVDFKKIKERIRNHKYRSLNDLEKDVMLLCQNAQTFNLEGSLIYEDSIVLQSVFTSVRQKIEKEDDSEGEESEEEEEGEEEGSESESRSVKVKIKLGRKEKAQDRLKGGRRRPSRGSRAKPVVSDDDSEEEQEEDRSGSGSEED
T1 sequence (P51531 whole entry): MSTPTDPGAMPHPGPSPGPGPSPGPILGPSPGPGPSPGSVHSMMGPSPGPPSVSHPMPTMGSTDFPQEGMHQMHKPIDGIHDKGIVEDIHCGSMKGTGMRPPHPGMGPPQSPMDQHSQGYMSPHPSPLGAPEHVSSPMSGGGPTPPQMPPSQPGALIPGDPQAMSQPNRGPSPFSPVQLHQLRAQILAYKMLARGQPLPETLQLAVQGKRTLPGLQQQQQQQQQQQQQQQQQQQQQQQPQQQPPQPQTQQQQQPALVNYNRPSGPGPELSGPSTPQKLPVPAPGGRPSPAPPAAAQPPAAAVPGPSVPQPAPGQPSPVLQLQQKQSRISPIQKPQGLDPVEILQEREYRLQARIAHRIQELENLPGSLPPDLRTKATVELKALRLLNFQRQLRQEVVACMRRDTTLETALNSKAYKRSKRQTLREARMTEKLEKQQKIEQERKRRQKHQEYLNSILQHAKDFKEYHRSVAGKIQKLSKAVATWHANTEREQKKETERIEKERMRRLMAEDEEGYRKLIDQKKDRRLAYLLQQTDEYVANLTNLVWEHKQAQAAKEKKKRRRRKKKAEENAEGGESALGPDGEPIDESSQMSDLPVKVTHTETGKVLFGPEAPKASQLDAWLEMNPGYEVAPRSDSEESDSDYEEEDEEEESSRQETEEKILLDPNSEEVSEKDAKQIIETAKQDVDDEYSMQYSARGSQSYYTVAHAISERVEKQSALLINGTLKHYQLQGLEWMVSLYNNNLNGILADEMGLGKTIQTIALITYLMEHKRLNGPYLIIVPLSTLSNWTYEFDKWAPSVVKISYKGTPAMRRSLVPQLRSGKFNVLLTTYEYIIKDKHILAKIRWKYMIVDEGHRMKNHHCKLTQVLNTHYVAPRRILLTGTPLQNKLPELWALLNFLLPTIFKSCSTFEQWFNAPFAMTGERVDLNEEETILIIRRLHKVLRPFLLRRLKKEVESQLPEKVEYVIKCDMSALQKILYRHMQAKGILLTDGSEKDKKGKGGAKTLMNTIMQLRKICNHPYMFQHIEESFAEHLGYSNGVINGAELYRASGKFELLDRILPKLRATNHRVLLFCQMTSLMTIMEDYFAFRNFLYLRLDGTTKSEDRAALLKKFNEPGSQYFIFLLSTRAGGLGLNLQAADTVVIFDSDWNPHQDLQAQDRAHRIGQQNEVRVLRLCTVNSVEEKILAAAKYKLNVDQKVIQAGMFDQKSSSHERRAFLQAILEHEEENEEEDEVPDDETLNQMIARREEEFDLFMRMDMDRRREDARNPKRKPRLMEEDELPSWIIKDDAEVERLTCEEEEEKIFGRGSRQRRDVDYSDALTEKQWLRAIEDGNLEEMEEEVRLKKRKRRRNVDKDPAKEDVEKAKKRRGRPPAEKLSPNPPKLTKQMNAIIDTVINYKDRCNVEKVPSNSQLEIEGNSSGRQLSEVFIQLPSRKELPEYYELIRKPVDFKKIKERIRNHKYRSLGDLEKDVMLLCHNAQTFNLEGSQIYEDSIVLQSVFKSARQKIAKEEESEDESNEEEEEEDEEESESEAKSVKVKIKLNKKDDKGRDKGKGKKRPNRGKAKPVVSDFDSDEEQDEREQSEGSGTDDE

Broadly, the IC50 is the concentration at which inhibition is half-maximal. As for `COCCN1CCc2ccc(-c3ccc4cnc(CNC(=O)c5ccc6c(c5)S(=O)(=O)CCOC6)cc4n3)nc2C1` [Compound 772], at BRM, the IC50 was 397 nM and the “Ratio*” value was determined as 7.26. In addition, the IC50 on BRG-1 worked out at 2880 nM.

As to `O=C(NCc1cc2nc(N3CCOc4cc(Cl)cc(F)c43)ccc2cn1)c1cc(F)c2c(c1)S(=O)(=O)CCOC2` [Compound 773], on BRM, it took 38.5 nM to reach half-maximal inhibition (IC50) and the “Ratio*” value is reported as 30.25. Moreover, the IC50 on BRG-1 turned out to be 1170 nM.

As for `COc1ccc2c(c1F)N(c1ccc3cnc(CNC(=O)c4ccc5c(c4)S(=O)(=O)CCOC5)cc3n1)CCO2` [Compound 774], at BRM, the IC50 turned out to be 12 nM and the “Ratio*” value was 14.44. At BRG-1, the IC50 came out at 174 nM.

`O=C(NCc1cc2nc(N3CCOc4cc(C5CC5)ccc43)ccc2nn1)c1ccc2c(c1)S(=O)(=O)CCOC2` [Compound 775]: on BRM, the IC50 amounted to 12.5 nM and the “Ratio*” value is 12.13. In addition, the IC50 at BRG-1 was 152 nM.

`COc1ccc2c(c1)N(c1ccc3cnc(CNC(=O)c4ccc5c(c4)S(=O)(=O)CCOC5)cc3n1)CCO2` [Compound 776]: at BRM, inhibition was half-maximal at 6.3 nM (IC50) and the “Ratio*” value stood at 15.77. The IC50 at BRG-1 is 100 nM.

As to `O=C(NCc1cc2nc(N3CCOc4cc(C(F)F)ncc43)ccc2cn1)c1ccc2c(c1)S(=O)(=O)CCOC2` [Compound 777], at BRM, the IC50 came to 74 nM and the “Ratio*” value was found to be 13.26. For the same compound, the IC50 at BRG-1 is 981 nM.

For `C[C@@H]1CN(c2cccc(-c3ccc4cnc(CNC(=O)c5ccc6c(c5)S(=O)(=O)CCC(F)C6)cc4n3)n2)C[C@H](C)O1` (stereo partly drawn) [Compound 779], the IC50 is 5.5 nM against BRM and 11.7 nM on BRG-1. Also, the “Ratio*” value at BRM is given as 2.13.

As for `O=C(NCc1cc2nc(N3CCCc4cnc(C5CC5)nc43)ccc2cn1)c1ccc2c(c1)S(=O)(=O)CCOC2` [Compound 780], the IC50 against BRM was 29 nM; on BRG-1 it was 515 nM. Also, the “Ratio*” value at BRM amounted to 17.78.

With `O=C(NCc1cc2nc(N3CCOc4cc(F)c(C(F)F)nc43)ccc2cn1)c1ccc2c(c1)S(=O)(=O)CCOC2` [Compound 781], at BRM, the IC50 is 27.9 nM and the “Ratio*” value is reported as 25.53. In addition, the IC50 on BRG-1 was determined as 713 nM.

For the compound `CN(c1cnc2c(c1)OCCN2c1ccc2cnc(CNC(=O)c3ccc4c(c3)S(=O)(=O)CCOC4)cc2n1)C1CC1` [Compound 782], the IC50 on BRM was 8.7 nM; at BRG-1, 43.5 nM. Further, on BRM, the “Ratio*” value was found to be 4.99.

With `COc1ncc2c(c1F)N(c1ccc3cnc(CNC(=O)c4ccc5c(c4)S(=O)(=O)CCOC5)cc3n1)CCC2` [Compound 783], at BRM, half-maximal inhibition (IC50) was put at 31.1 nM and the “Ratio*” value was 14.27. Also, on BRG-1, the IC50 stood at 444 nM.

As for `Cc1c(C2CC2)cnc2c1OCCN2c1ccc2cnc(CNC(=O)c3ccc4c(c3)S(=O)(=O)CCOC4)cc2n1` [Compound 784], on BRM, half-maximal inhibition (IC50) required 24.6 nM and the “Ratio*” value worked out at 8.62. Besides, the IC50 on BRG-1 came out at 212 nM.

For `O=C(NCc1cc2nc(N3CCCc4ncc(C5CC5)nc43)ccc2cn1)c1ccc2c(c1)S(=O)(=O)CCOC2` [Compound 785], at BRM, the IC50 was found to be 85.8 nM and the “Ratio*” value came to 15.49. In addition, the concentration for half-maximal inhibition (IC50) on BRG-1 came to 1330 nM.

`O=C(NCc1cc2cc(N3CCOc4ccc(C5CC5)cc43)ccc2cn1)c1ccc2c(c1)S(=O)(=O)CCOC2` [Compound 787]: on BRM, half-maximal inhibition (IC50) was put at 13.5 nM and the “Ratio*” value is 14.38. For the same compound, on BRG-1, the 50% inhibitory concentration (IC50) is 194 nM.

Take `O=C(NCc1cc2nc(-c3ccc4c(n3)CN(C3CC3)CC4)ccc2cn1)c1ccc2c(c1)S(=O)(=O)CCOC2` [Compound 788]: on BRM, the IC50 worked out at 620 nM and the “Ratio*” value turned out to be 6.69. Further, the IC50 on BRG-1 was found to be 4150 nM.

Turning to `O=C(NCc1cc2cc(N3CCCc4cc(-c5cn[nH]c5)ccc43)ccc2cn1)c1ccc2c(c1)S(=O)(=O)CCOC2` [Compound 789], the IC50 on BRM was determined as 5.9 nM; on BRG-1 it was 30.3 nM. For the same compound, the “Ratio*” value at BRM stood at 5.10.

With `CN(C)c1cnc2c(c1)OCCN2c1ccc2cnc(CNC(=O)c3ccc4c(c3)S(=O)(=O)CCOC4)cc2c1` [Compound 790], at BRM, it took 12.2 nM to reach half-maximal inhibition (IC50) and the “Ratio*” value stood at 5.03. In addition, the IC50 at BRG-1 was 61.4 nM.

For the compound `O=C(NCc1cc2nc(N3CCCc4cc5c(cc43)OCO5)ccc2cn1)c1ccc2c(c1)S(=O)(=O)CCOC2` [Compound 792], on BRM, the IC50 worked out at 13.7 nM and the “Ratio*” value was 9.88. In addition, the IC50 at BRG-1 was found to be 135 nM.

`O=C(NCc1cc2nc(N3CCCc4cc5c(cc43)OCCO5)ccc2cn1)c1ccc2c(c1)S(=O)(=O)CCOC2` [Compound 793]: the IC50 on BRM was found to be 11.8 nM; at BRG-1 it was 140 nM. Further, on BRM, the “Ratio*” value is on record as 11.88.

For the compound `COCc1cc2c(c(F)c1Cl)N(c1ccc3cnc(CNC(=O)c4ccc5c(c4)S(=O)(=O)CCOC5)cc3n1)CCO2` [Compound 794], the IC50 on BRM is 6.6 nM; on BRG-1, 30.4 nM. Moreover, on BRM, the “Ratio*” value is listed as 4.60.

For `O=C(NCc1cc2nc(N3CCOc4ccc(C5(F)CC5(F)F)nc43)ccc2cn1)c1ccc2c(c1)S(=O)(=O)CCOC2` (stereo not drawn) [Compound 795], the IC50 on BRM was 122 nM; at BRG-1, 4110 nM. At BRM, the “Ratio*” value is reported as 33.67.

For `COCc1cc(F)c2c(c1)OCCN2c1ccc2cnc(CNC(=O)c3ccc4c(c3)S(=O)(=O)CCOC4)cc2n1` [Compound 796], at BRM, the IC50 came out at 20.8 nM and the “Ratio*” value is reported as 13.06. Besides, the IC50 on BRG-1 was 272 nM.

`O=C(NCc1cc2nc(-c3cccc(N4CC(C5(F)COC5)C4)n3)ccc2cn1)c1ccc2c(c1)S(=O)(=O)CCOC2` [Compound 797]: the figures for the IC50 on BRM and at BRG-1 were 18.8 nM and 190 nM, respectively. For the same compound, the “Ratio*” value at BRM is given as 10.11.

With `O=C(NCc1cc2cc(N3CCOc4cc(N5CCOCC5)cnc43)ccc2cn1)c1ccc2c(c1)S(=O)(=O)CCOC2` [Compound 798], at BRM, it took 7.4 nM to reach half-maximal inhibition (IC50) and the “Ratio*” value was 5.90. The IC50 at BRG-1 turned out to be 43.8 nM.

In the case of `O=C(NCc1cc2cc(N3CCOc4ccc(C(F)F)nc43)ccc2cn1)c1ccc2c(c1)S(=O)(=O)CCOC2` [Compound 799], at BRM, the IC50 turned out to be 25.5 nM and the “Ratio*” value was found to be 26.04. Also, the IC50 at BRG-1 turned out to be 663 nM.

With `O=C(NCc1ncc2ccc(N3CCOc4cc(C5CC5)cnc43)cc2n1)c1ccc2c(c1)S(=O)(=O)CCOC2` [Compound 800], the IC50 against BRM stood at 169 nM; at BRG-1, 636 nM. In addition, on BRM, the “Ratio*” value came out at 3.77.

For `O=C(NCc1cc2cc(N3CCOc4cc(C5CC5)cnc43)cnc2cn1)c1ccc2c(c1)S(=O)(=O)CCOC2` [Compound 801], on BRM, the IC50 came to 111 nM and the “Ratio*” value amounted to 13.00. Moreover, on BRG-1, the IC50 came out at 1440 nM.

With `COc1c(F)cnc2c1CCCN2c1ccc2cnc(CNC(=O)c3ccc4c(c3)S(=O)(=O)CCOC4)cc2n1` [Compound 802], the IC50 stood at 8.1 nM against BRM and 67.1 nM at BRG-1. The “Ratio*” value at BRM is 8.31.

With `CN(C)c1cc2c(cn1)N(c1ccc3cnc(CNC(=O)c4ccc5c(c4)S(=O)(=O)CCOC5)cc3n1)CCO2` [Compound 803], at BRM, the IC50 was found to be 8.1 nM and the “Ratio*” value stood at 12.88. Further, the IC50 on BRG-1 came to 105 nM.

Regarding `O=C(NCc1cc2nc(N3CCOc4c(F)cc(C5CC5)nc43)ccc2cn1)c1ccc2c(c1)S(=O)(=O)CCOC2` [Compound 804], the figures for the IC50 on BRM and on BRG-1 were 15.8 nM and 646 nM, respectively. The “Ratio*” value at BRM amounted to 40.93.

Take `O=C(NCc1cc2nc(N3CCOc4cc(C5CC5)c(F)c(F)c43)ccc2cn1)c1ccc2c(c1)S(=O)(=O)CCOC2` [Compound 805]: at BRM, the IC50 came to 26.2 nM and the “Ratio*” value is 11.56. Besides, at BRG-1, the IC50 is 303 nM.

As to `COc1nn(C(F)F)cc1-c1ccc2cnc(CNC(=O)c3ccc4c(c3)S(=O)(=O)CCOC4)cc2n1` [Compound 806], at BRM, the IC50 came out at 92.3 nM and the “Ratio*” value was 8.67. The IC50 at BRG-1 stood at 801 nM.

As to `[2H]C1([2H])OC([2H])([2H])C([2H])([2H])S(=O)(=O)c2cc(C(=O)NCc3cc4nc(N5CCOc6ccc(C(F)F)nc65)ccc4cn3)ccc21` [Compound 807], on BRM, the midpoint of inhibition, the IC50, lay at 19.1 nM and the “Ratio*” value was 25.47. Also, the IC50 on BRG-1 worked out at 486 nM.

On to `COc1ncccc1-c1ccc2cnc(CNC(=O)c3ccc4c(c3)S(=O)(=O)CCOC4)cc2n1` [Compound 808], for which, on BRM, the IC50 came out at 84 nM and the “Ratio*” value was determined as 12.50. Also, at BRG-1, the IC50 is 1050 nM.

`C[C@@H]1C[C@H]1c1ccc2c(n1)N(c1ccc3cnc(CNC(=O)c4ccc5c(c4)S(=O)(=O)CCOC5)cc3n1)CCO2` [Compound 809]: at BRM, half-maximal inhibition (IC50) required 6.9 nM and the “Ratio*” value is 39.28. Further, the IC50 at BRG-1 worked out at 269 nM.

Take `C[C@H]1C[C@@H]1c1ccc2c(n1)N(c1ccc3cnc(CNC(=O)c4ccc5c(c4)S(=O)(=O)CCOC5)cc3n1)CCO2` [Compound 810]: at BRM, the 50% inhibitory concentration (IC50) was determined as 8.3 nM and the “Ratio*” value is reported as 22.29. Further, the IC50 at BRG-1 is 185 nM.

Regarding `Cn1cc(-c2ccc3cnc(CNC(=O)c4ccc5c(c4)S(=O)(=O)CCOC5)cc3n2)c(OC(F)F)n1` [Compound 812], at BRM, it took 45.8 nM to reach half-maximal inhibition (IC50) and the “Ratio*” value turned out to be 14.46. In addition, on BRG-1, the IC50 was found to be 662 nM.

`O=C(NCc1cc2nc(N3CCOc4c3cnc(C3CC3)c4F)ccc2cn1)c1ccc2c(c1)S(=O)(=O)CCOC2` [Compound 813]: the IC50 against BRM was 38.1 nM; on BRG-1 it was 477 nM. Also, at BRM, the “Ratio*” value was found to be 12.52.

Values taken from patent US20230416248A1, “COMPOUNDS AND USES THEREOF” (Foghorn Therapeutics Inc., priority 2020, published 2023).
